ChEMBL document CHEMBL4680094, “Insights of a Lead Optimization Study and Biological Evaluation of Novel 4-Hydroxytamoxifen Analogs as Estrogen-Related Receptor γ (ERRγ) Inverse Agonists” (J Med Chem, 2016)
Activity calls are given as the source filed them. The rule behind the calls is not given here.

Assays:
[1] = Metabolic stability in human liver microsome assessed as parent compound remaining at 1 uM incubated for 30 mins in presence of NADPH generating system by LC-MS/MS analysis; format: ADME; conditions: liver microsomes, read-out: Stabilty
[2] = molecular target: T1, Steroid hormone receptor ERR1 (Homo sapiens, UniProt P11474); assay: Binding affinity to GST-tagged ERRalpha LBD (unknown origin) using fluorescein PGC1alpha as coactivator incubated for 1 hr by LanthaScreen TR-FRET co-regulator assay
T1 sequence (P11474 whole entry): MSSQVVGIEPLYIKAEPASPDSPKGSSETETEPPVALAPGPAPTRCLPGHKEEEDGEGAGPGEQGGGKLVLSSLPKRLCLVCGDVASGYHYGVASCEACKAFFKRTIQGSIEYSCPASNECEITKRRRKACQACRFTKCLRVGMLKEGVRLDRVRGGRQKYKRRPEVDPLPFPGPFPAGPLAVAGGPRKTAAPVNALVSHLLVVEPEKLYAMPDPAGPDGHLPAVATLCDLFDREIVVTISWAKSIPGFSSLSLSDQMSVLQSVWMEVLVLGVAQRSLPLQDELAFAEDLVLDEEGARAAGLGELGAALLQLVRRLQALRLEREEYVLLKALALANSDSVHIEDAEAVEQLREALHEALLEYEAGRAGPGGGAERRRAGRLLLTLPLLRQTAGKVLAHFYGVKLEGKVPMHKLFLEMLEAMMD

[3] = molecular target: CYP3A4 (Homo sapiens, UniProt P08684); assay: Inhibition of CYP3A4 in human liver microsomes assessed as reduction in midazolam 1-hydroxylase activity at 10 uM preincubated for 5 mins followed by addition of NADPH-regenerating system and measured after 15 mins by LC-MS/MS analysis relative to control; format: ADME; conditions: probe midazolam (1-hydroxylase activity), time 20 min
[4] = Effective permeability of compound at 10 uM in PBS buffer at pH 7.4 after 5 hrs by LC-MS/MS analysis based PAMPA method; format: ADME; conditions: read-out: Peff
[5] = molecular target: T2, Estrogen receptor (Homo sapiens, UniProt P03372); assay: Binding affinity to GST-tagged ERalpha LBD (unknown origin) using fluorescein PGC1alpha as coactivator incubated for 1 hr by LanthaScreen TR-FRET co-regulator assay
T2 sequence (P03372 whole entry): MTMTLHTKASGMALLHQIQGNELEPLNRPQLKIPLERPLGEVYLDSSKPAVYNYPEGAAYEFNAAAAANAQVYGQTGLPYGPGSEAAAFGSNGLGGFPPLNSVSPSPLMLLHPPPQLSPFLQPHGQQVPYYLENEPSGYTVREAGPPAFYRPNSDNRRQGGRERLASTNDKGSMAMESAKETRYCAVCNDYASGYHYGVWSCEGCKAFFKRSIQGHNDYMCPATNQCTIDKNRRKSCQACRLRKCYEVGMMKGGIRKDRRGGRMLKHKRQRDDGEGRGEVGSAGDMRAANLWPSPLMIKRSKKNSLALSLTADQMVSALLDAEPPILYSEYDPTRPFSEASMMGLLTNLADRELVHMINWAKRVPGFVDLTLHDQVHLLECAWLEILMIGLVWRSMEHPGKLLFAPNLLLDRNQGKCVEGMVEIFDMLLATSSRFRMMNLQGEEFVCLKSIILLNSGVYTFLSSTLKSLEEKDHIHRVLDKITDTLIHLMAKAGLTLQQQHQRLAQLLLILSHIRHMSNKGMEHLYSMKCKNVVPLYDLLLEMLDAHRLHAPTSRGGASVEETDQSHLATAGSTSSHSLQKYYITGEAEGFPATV

[6] = molecular target: T3, Steroid hormone receptor ERR2 (Homo sapiens, UniProt O95718); assay: Binding affinity to GST-tagged ERRbeta LBD (unknown origin) using fluorescein PGC1alpha as coactivator incubated for 1 hr by LanthaScreen TR-FRET co-regulator assay
T3 sequence (O95718 whole entry): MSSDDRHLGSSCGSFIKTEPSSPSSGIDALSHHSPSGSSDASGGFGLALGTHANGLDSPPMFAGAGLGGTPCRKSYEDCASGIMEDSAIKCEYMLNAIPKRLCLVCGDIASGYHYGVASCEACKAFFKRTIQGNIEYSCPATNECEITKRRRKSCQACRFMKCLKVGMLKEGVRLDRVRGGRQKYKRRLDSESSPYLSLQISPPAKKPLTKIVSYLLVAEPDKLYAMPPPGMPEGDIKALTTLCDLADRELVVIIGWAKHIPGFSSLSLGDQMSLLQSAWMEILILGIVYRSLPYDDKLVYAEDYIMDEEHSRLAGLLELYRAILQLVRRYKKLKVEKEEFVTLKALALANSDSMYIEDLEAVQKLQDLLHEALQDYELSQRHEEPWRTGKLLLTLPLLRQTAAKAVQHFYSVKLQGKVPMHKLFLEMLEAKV

[7] = Metabolic stability in rat liver microsome assessed as parent compound remaining at 1 uM incubated for 30 mins in presence of NADPH generating system by LC-MS/MS analysis; format: ADME; conditions: liver microsomes, read-out: Stabilty
[8] = molecular target: T4, CYP1A2 (Homo sapiens, UniProt P05177); assay: Inhibition of CYP1A2 in human liver microsomes assessed as reduction in phenacetin O-deethylase activity at 10 uM preincubated for 5 mins followed by addition of NADPH-regenerating system and measured after 15 mins by LC-MS/MS analysis relative to control; format: ADME; conditions: probe phenacetin (O-deethylase activity), time 20 min
T4 sequence (P05177 whole entry): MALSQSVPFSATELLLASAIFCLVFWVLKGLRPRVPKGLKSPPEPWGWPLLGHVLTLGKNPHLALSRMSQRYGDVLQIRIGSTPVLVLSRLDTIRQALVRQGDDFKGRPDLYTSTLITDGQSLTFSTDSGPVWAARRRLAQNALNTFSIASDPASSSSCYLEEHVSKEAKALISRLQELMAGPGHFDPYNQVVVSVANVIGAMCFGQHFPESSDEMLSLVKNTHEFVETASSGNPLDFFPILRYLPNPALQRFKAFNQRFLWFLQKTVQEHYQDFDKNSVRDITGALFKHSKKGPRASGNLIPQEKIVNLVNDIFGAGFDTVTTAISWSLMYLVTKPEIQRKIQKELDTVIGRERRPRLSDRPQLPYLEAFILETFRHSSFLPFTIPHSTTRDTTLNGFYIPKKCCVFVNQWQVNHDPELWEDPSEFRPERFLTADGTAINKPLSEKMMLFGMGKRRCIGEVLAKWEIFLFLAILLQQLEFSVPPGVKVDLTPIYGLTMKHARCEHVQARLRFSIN

[9] = molecular target: CYP2C9 (Homo sapiens, UniProt P11712); assay: Inhibition of CYP2C9 in human liver microsomes assessed as reduction in tolbutamide 4-hydroxylase activity at 10 uM preincubated for 5 mins followed by addition of NADPH-regenerating system and measured after 15 mins by LC-MS/MS analysis relative to control; format: ADME; conditions: probe tolbutamide (4-hydroxylase activity), time 20 min
[10] = tested on: CAL-62; assay: Anticlonogenic activity against human CAL-62 cells assessed as colony forming units level in absence of [131I] at 20 uM incubated for 24 hrs by crystal violet staining based assay; format: ADME, cell-based; conditions: cal-62, 24 h
[11] = tested on: CAL-62; assay: Potentiation of radioiodine therapy-mediated cytotoxicity against human CAL-62 cells assessed as colony forming units level in presence of [131I] at 20 uM preincubated for 24 hrs followed by [131I] addition and measured after 6 hrs by crystal violet staining based assay (reference value: 97.5 +/- 2%); format: functional; conditions: time 30 hrs
[12] = molecular target: CYP2D6 (Homo sapiens, UniProt P10635); assay: Inhibition of CYP2D6 in human liver microsomes assessed as reduction in dextromethorphan O-demethylase activity at 10 uM preincubated for 5 mins followed by addition of NADPH-regenerating system and measured after 15 mins by LC-MS/MS analysis relative to control; format: ADME; conditions: probe dextromethorphan (O-demethylase activity), time 20 min
[13] = molecular target: CYP2C19 (Homo sapiens, UniProt P33261); assay: Inhibition of CYP2C19 in human liver microsomes assessed as reduction in S-mephenytoin 4-hydroxylase activity at 10 uM preincubated for 5 mins followed by addition of NADPH-regenerating system and measured after 15 mins by LC-MS/MS analysis relative to control; format: ADME; conditions: probe S-mephenytoin (4-hydroxylase activity), time 20 min
[14] = Clearance in Sprague-Dawley rat at 10 mg/kg, po or 1 mg/kg, iv measured upto 8 hrs by LC-MS/MS analysis; format: ADME, organism-based; conditions: in vivo
[15] = tested on: CAL-62; assay: Antiproliferative activity against human CAL-62 cells at 10 uM assessed as reduction in cell proliferation; format: functional, cell-based
[16] = tested on: CAL-62; assay: Antiproliferative activity against human CAL-62 cells at 20 uM assessed as reduction in cell proliferation; format: functional, cell-based
[17] = molecular target: Voltage-gated inwardly rectifying potassium channel KCNH2 (Homo sapiens, UniProt Q12809); assay: (§1) Inhibition of human ERG measured after 4 hrs by fluorescence polarization assay
[18] = Half-life in Sprague-Dawley rat at 10 mg/kg, po or 1 mg/kg, iv measured upto 8 hrs by LC-MS/MS analysis; format: ADME, organism-based; conditions: in vivo
[19] = Oral bioavailability in Sprague-Dawley rat at 10 mg/kg, administered via gavage measured upto 8 hrs by LC-MS/MS analysis; format: ADME, organism-based; conditions: in vivo
[20] = Volume of distribution at steady state in Sprague-Dawley rat at 10 mg/kg, po or 1 mg/kg, iv measured upto 8 hrs by LC-MS/MS analysis; format: ADME, organism-based; conditions: in vivo, read-out: Vdss
[21] = molecular target: hERG (KCNH2) (Homo sapiens, UniProt Q12809); assay: as §1; conditions: human
[22] = molecular target: T5, Estrogen-related receptor gamma (Homo sapiens, UniProt P62508)
T5 sequence (P62508 whole entry): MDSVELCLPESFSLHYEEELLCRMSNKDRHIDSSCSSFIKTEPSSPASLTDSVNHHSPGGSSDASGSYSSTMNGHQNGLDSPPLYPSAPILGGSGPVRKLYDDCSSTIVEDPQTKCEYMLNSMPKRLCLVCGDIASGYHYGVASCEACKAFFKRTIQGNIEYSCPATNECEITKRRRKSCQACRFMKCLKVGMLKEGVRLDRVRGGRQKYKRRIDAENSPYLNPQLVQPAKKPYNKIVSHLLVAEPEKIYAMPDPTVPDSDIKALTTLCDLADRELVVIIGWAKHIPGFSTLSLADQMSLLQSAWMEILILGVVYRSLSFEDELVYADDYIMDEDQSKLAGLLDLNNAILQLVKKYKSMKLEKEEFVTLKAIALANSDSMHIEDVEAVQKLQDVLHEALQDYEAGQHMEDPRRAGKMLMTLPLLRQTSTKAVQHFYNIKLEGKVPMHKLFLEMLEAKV

Chain of CYP2D6 (P10635 whole entry): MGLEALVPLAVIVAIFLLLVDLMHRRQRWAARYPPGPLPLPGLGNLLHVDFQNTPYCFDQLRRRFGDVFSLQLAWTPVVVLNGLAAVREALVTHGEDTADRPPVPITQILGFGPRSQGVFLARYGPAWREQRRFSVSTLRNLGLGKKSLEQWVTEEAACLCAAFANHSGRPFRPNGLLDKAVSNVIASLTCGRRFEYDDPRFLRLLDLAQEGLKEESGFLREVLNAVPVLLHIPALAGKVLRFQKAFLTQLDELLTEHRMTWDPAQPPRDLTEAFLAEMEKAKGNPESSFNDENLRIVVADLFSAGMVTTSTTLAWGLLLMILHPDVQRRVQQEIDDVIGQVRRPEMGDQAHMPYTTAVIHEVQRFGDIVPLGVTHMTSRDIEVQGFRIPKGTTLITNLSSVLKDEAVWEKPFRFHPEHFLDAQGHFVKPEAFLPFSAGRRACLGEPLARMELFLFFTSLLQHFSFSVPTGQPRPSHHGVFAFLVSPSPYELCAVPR
Chain of CYP2C9 (P11712 whole entry): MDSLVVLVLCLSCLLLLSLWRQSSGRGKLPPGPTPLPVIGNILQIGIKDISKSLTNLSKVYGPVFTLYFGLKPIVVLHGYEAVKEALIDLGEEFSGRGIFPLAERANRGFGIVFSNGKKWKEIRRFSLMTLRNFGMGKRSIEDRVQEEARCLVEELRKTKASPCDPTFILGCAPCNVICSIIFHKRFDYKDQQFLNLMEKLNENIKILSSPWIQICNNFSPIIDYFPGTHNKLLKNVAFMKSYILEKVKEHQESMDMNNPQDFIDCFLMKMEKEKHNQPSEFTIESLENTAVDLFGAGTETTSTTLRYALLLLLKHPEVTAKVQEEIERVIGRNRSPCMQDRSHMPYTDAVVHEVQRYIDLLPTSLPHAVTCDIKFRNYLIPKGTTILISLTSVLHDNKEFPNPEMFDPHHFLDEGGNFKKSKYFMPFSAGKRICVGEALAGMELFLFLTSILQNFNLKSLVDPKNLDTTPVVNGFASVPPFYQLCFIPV
Chain of CYP2C19 (P33261 whole entry): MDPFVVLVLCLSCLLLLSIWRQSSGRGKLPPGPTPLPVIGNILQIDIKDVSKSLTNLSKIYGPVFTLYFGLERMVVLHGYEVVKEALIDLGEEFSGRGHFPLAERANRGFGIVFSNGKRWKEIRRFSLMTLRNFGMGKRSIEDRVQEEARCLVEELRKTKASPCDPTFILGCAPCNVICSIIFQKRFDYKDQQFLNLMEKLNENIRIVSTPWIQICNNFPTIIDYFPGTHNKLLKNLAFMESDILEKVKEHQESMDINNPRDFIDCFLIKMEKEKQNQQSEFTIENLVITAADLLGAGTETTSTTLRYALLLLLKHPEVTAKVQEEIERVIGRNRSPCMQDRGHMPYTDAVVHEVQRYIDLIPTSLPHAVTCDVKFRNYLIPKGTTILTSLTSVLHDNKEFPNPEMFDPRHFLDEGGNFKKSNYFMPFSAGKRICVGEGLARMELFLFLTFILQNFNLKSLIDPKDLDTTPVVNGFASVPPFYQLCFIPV
Chain of CYP3A4 (P08684 whole entry): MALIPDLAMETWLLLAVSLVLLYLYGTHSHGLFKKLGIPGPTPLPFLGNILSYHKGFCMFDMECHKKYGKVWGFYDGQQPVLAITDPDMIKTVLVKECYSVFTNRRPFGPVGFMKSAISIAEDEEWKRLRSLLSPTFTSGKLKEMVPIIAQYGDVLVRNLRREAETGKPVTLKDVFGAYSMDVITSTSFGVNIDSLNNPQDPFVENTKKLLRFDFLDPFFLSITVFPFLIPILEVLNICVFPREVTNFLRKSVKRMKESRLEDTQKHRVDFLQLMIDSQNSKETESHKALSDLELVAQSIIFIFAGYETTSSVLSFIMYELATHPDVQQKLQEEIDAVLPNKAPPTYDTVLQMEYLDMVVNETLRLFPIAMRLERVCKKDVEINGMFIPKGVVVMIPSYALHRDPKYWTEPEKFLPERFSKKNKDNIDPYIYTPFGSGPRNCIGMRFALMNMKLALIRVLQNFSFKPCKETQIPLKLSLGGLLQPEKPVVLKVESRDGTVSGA
Chain of Voltage-gated inwardly rectifying potassium channel KCNH2 (Q12809 whole entry): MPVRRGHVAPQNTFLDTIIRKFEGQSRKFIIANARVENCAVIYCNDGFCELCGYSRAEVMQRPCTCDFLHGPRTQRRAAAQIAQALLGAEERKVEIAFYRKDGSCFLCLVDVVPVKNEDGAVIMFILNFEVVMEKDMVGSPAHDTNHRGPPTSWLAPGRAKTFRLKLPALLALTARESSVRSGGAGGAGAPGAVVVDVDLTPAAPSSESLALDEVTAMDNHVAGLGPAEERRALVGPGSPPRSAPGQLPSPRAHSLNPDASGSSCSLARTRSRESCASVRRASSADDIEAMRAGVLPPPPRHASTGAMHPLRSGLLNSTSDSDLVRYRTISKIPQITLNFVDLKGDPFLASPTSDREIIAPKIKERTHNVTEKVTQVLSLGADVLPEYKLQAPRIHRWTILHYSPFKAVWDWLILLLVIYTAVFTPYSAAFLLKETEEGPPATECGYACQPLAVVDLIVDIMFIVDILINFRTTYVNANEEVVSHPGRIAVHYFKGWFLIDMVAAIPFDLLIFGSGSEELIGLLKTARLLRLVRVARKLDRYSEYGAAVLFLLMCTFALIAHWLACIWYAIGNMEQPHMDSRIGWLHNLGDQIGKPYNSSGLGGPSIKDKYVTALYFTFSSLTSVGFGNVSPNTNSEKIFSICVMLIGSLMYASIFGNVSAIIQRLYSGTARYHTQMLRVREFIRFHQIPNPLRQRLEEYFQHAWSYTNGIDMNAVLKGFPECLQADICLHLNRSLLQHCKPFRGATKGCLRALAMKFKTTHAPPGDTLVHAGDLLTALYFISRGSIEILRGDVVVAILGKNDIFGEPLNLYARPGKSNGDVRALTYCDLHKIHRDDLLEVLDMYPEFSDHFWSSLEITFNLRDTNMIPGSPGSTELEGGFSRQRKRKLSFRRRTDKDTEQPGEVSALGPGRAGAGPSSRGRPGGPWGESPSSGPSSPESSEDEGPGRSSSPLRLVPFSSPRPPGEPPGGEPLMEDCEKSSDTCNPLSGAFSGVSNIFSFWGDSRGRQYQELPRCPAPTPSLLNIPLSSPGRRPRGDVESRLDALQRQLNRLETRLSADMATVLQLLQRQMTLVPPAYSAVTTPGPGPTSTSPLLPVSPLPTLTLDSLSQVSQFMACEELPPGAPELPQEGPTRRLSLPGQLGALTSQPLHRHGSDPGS
Chain of hERG (KCNH2) (Q12809 whole entry): as above

Row | Compound | remaining at 0.5 h, 1 µM [1] | IC50 [2] | inhibition at 0.25 h, 10 µM [3] | Papp at 5 h, 10 µM [4] | IC50 [5] | IC50 [6] | remaining at 0.5 h, 1 µM [7] | inhibition at 0.25 h, 10 µM [8] | inhibition at 0.25 h, 10 µM [9] | inhibition at 0.25 h, 10 µM [12] | inhibition at 0.25 h, 10 µM [13] | clearance [14] | IC50 [17] | IC50 [22] | further results
1 | CN1CCC[C@H]1COc1ccc(/C(=C(/CCCO)c2ccccc2)c2ccc(O)cc2)cc1.Cl | 24.8% | > 10 µM | 24.6% | 2.11 ×10⁻⁶ cm/s | 1.06 µM | 3.99 µM | 30.3% | 0% | 37.2% | 9.3% | 16.8% | – | – | – | Activity [10]: 93%; Activity [11]: 67.4%
2 | CN(C)CCOc1ccc(/C(=C(/CCCO)c2ccccc2)c2ccc(O)cc2)cc1 | – | – | 17% | 0.23 ×10⁻⁶ cm/s | – | – | – | 16.4% | 27.1% | 17.7% | 21.8% | 45.6 mL/min/kg | – | – | –
3 | CN1CCC[C@H]1COc1ccc(/C(=C(/CCCO)c2ccccc2)c2ccc(Br)cc2)cc1.Cl | 61.2% | – | 55% | 0.93 ×10⁻⁶ cm/s | – | – | 66.2% | 9.6% | 37.3% | 35.6% | 30.5% | 74.4 mL/min/kg | 4.7 µM | – | Activity [15]: inactive; Activity [16]: Active; half-life [18]: 3.4 h; bioavailability [19]: 38.2%; Vd [20]: 16.1 L/kg
4 | CN1CCC[C@@H]1COc1ccc(/C(=C(/CCCO)c2ccccc2)c2ccc(O)cc2)cc1.Cl | 29% | > 10 µM | 20.6% | 0.7 ×10⁻⁶ cm/s | 3.76 µM | > 10 µM | 27.7% | 1.9% | 13.3% | 6.4% | 17.4% | – | – | – | IC50 at 4 h [21]: > 30 µM
5 | CN1CCCC1CCOc1ccc(/C(=C(/CCCO)c2ccccc2)c2ccc(Br)cc2)cc1.Cl (stereo unspecified) | 67.3% | 5.14 µM | 9.8% | 0.21 ×10⁻⁶ cm/s | 2.97 µM | 8.88 µM | 59.9% | 0% | 3% | 0% | 10.6% | – | 1.7 µM | 0.296 µM | –
6 | CN1CCCC1CCOc1ccc(/C(=C(/CCCO)c2ccccc2)c2ccc(O)cc2)cc1.Cl (stereo unspecified) | 37.3% | > 10 µM | 16.3% | 0.01 ×10⁻⁶ cm/s | – | 6.01 µM | 22.5% | 2.1% | 24.6% | 18.3% | 18.2% | – | – | 0.02 µM | –
